Earlier results, collected in patent US8865699B2, “Amino triazoles as PI3K inhibitors” (Cellzome Ltd., priority 2007, dated 2014).

Experiments:
[1] = test system: collagen II-antibody-induced arthritis; conditions: wildtype mice, oral
[2] = test system: lymphocyte-dependent rheumatoid arthritis induced by direct collagen II injection; conditions: mouse, oral
[3] = test system: MRL-lpr mouse model of systemic lupus erythematosus (SLE); conditions: intraperitoneal administration
[4] = test system: animal model of myocardial infarction; conditions: dosing after myocardial reperfusion (up to 3 hours after)

Structure (SMILES) | clinical and histologic signs of arthritis [1] | joint inflammation and damage [2] | CD4+ T-cell populations [3] | glomerulonephritis [3] | life span [3] | edema and inflammation in response to multiple mediators [4]
O=C1NC(=O)/C(=C\c2ccc3nccnc3c2)S1 [AS-605240] | reduced clinical and histologic signs of collagen II-antibody-induced arthritis | decreased joint inflammation and damage | reduced CD4+ T-cell populations | reduced glomerulonephritis | prolonged life span | –
Nc1nc(N)c2nc(-c3cccc(O)c3)c(-c3cccc(O)c3)nc2n1 [TG100-115] | – | – | – | – | – | potently inhibits edema and inflammation
